The text below walks through data of patent publication US12077503B2, “Substituted cyclic amides and their use as herbicides” (FMC CORPORATION, priority 2015, dated 2024).

Test in all cases: Test G Post-Emergence Protocol
Holding throughout (type): in vivo

In assay [1] the test system is barnyardgrass (Echinochloa crus-galli). The conditions noted are these: Echinochloa crus-galli, post-emergence, 312 h; for pest or weed control at 15.625 g/ha: 15.625 g ai/ha, evaluated after 13 days (100=total damage to plant; 0=no damage to plant), read-out: Barnyardgrass damage rating; for pest or weed control at 62.5 g/ha: 62.5 g ai/ha, read-out: Barnyardgrass damage rating (100=total damage to plant; 0=no damage to plant); for pest or weed control at 62.5 g/ha / pest or weed control at 250 g/ha: evaluated after 13 days; for pest or weed control at 250 g/ha: 250 g ai/ha, read-out: damage to plant, Barnyardgrass (100=total damage to plant; 0=no damage to plant). In short, it runs like this:
(§1)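 Post-emergence herbicidal damage, scored visually 0–100 at 13 days. Application at 15.625, 62.5 or 250 g/ha onto 8-day-old plants grown under glasshouse control.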

Another assay has as its system corn (Zea mays). The conditions noted are these: Zea mays, post-emergence, 312 h; for plant injury at 15.625 g/ha: 15.625 g ai/ha, evaluated after 13 days (100=total damage to plant; 0=no damage to plant), read-out: Corn damage rating; for plant injury at 62.5 g/ha: 62.5 g ai/ha, read-out: Corn damage rating (100=total damage to plant; 0=no damage to plant); for plant injury at 62.5 g/ha / plant injury at 250 g/ha: evaluated after 13 days; for plant injury at 250 g/ha: 250 g ai/ha, read-out: damage to plant, Corn (100=total damage to plant; 0=no damage to plant). In short, it runs like this: as §1

The test system of assay [2] is giant foxtail (Setaria faberi). Particulars: Setaria faberi, post-emergence, 312 h; for pest or weed control at 15.625 g/ha: 15.625 g ai/ha, evaluated after 13 days (100=total damage to plant; 0=no damage to plant), read-out: Foxtail, Giant damage rating; for pest or weed control at 62.5 g/ha: 62.5 g ai/ha, read-out: Foxtail, Giant damage rating (100=total damage to plant; 0=no damage to plant); for pest or weed control at 62.5 g/ha / pest or weed control at 250 g/ha: evaluated after 13 days; for pest or weed control at 250 g/ha: 250 g ai/ha, read-out: damage to plant, Foxtail, Giant (100=total damage to plant; 0=no damage to plant). In short, it runs like this:
as §1

The test system of assay [3] is velvetleaf (Abutilon theophrasti). The conditions noted are these: Abutilon theophrasti, post-emergence, 312 h; for pest or weed control at 15.625 g/ha: 15.625 g ai/ha, evaluated after 13 days (100=total damage to plant; 0=no damage to plant), read-out: Velvetleaf damage rating; for pest or weed control at 62.5 g/ha: 62.5 g ai/ha, read-out: Velvetleaf damage rating (100=total damage to plant; 0=no damage to plant); for pest or weed control at 62.5 g/ha / pest or weed control at 250 g/ha: evaluated after 13 days; for pest or weed control at 250 g/ha: 250 g ai/ha, read-out: damage to plant, Velvetleaf (100=total damage to plant; 0=no damage to plant). In short, it runs like this: as §1

Assay [4] has as its system ivy-leaved morning glory (Ipomoea hederacea). The conditions noted are these: Ipomoea, post-emergence, 312 h; for pest or weed control at 15.625 g/ha: 15.625 g ai/ha, evaluated after 13 days (100=total damage to plant; 0=no damage to plant), read-out: Morningglory, Ivy-leaved damage rating; for pest or weed control at 62.5 g/ha: 62.5 g ai/ha, read-out: Morningglory, Ivy-leaved damage rating (100=total damage to plant; 0=no damage to plant); for pest or weed control at 62.5 g/ha / pest or weed control at 250 g/ha: evaluated after 13 days; for pest or weed control at 250 g/ha: 250 g ai/ha, read-out: damage to plant, Morningglory, Ivy-leaved (100=total damage to plant; 0=no damage to plant). In short, it runs like this:
as §1

Assay [5] has as its system redroot pigweed (Amaranthus retroflexus). The conditions noted are these: Amaranthus retroflexus, post-emergence, 312 h; for pest or weed control at 15.625 g/ha: 15.625 g ai/ha, evaluated after 13 days (100=total damage to plant; 0=no damage to plant), read-out: Pigweed, Redroot damage rating; for pest or weed control at 62.5 g/ha: 62.5 g ai/ha, read-out: Pigweed, Redroot damage rating (100=total damage to plant; 0=no damage to plant); for pest or weed control at 62.5 g/ha / pest or weed control at 250 g/ha: evaluated after 13 days; for pest or weed control at 250 g/ha: 250 g ai/ha, read-out: damage to plant, Pigweed, Redroot (100=total damage to plant; 0=no damage to plant). In short, it runs like this: as §1

Each structure is given as a SMILES string.

With `CN1C[C@@H](c2ccc(C(F)(F)F)cc2)[C@H](C(=O)Nc2ncc(Br)cn2)C1=O` (racemic) [Compound 1514], in assay [1], the pest or weed control at 15.625 g/ha came to 0%, the pest or weed control at 62.5 g/ha stood at 0% and the pest or weed control at 250 g/ha came out at 0%. Besides, in the assay with corn (Zea mays), the plant injury at 15.625 g/ha came out at 0%, the plant injury at 62.5 g/ha was determined as 10% and the plant injury at 250 g/ha came to 10%. In assay [2], the pest or weed control at 15.625 g/ha came out at 0%, the pest or weed control at 62.5 g/ha turned out to be 0% and the pest or weed control at 250 g/ha came to 0%. In assay [3], the pest or weed control at 15.625 g/ha was found to be 0%, the pest or weed control at 62.5 g/ha turned out to be 0% and the pest or weed control at 250 g/ha was found to be 0%. In assay [4], the pest or weed control at 15.625 g/ha came out at 0%, the pest or weed control at 62.5 g/ha came out at 0% and the pest or weed control at 250 g/ha was 0%. Besides, in assay [5], the pest or weed control at 15.625 g/ha turned out to be 0%, the pest or weed control at 62.5 g/ha is 0% and the pest or weed control at 250 g/ha turned out to be 0%.
With `Cc1cscc1NC(=O)[C@@H]1C(=O)N(C)C[C@H]1c1ccc(C(F)(F)F)cc1` (racemic) [Compound 1526], in assay [1], the pest or weed control at 15.625 g/ha turned out to be 0%, the pest or weed control at 62.5 g/ha came to 0% and the pest or weed control at 250 g/ha is 60%. Also, in the assay with corn (Zea mays), the plant injury at 15.625 g/ha is 0%, the plant injury at 62.5 g/ha turned out to be 10% and the plant injury at 250 g/ha was 10%. In assay [2], the pest or weed control at 15.625 g/ha was determined as 0%, the pest or weed control at 62.5 g/ha amounted to 20% and the pest or weed control at 250 g/ha came out at 60%. Moreover, in assay [3], the pest or weed control at 15.625 g/ha was 0%, the pest or weed control at 62.5 g/ha was 0% and the pest or weed control at 250 g/ha stood at 10%. In assay [4], the pest or weed control at 15.625 g/ha is 0%, the pest or weed control at 62.5 g/ha turned out to be 10% and the pest or weed control at 250 g/ha turned out to be 20%. Further, in assay [5], the pest or weed control at 15.625 g/ha stood at 0%, the pest or weed control at 62.5 g/ha came to 0% and the pest or weed control at 250 g/ha was found to be 0%.
For the compound `CN1C[C@@H](c2ccc(C(F)(F)F)cc2)[C@H](C(=O)Nc2ncc(C#N)s2)C1=O` (racemic) [Compound 1528], in assay [1], the pest or weed control at 15.625 g/ha amounted to 0%, the pest or weed control at 62.5 g/ha was determined as 0% and the pest or weed control at 250 g/ha was 0%. Further, in the assay with corn (Zea mays), the plant injury at 15.625 g/ha was 0%, the plant injury at 62.5 g/ha was found to be 0% and the plant injury at 250 g/ha came to 0%. Besides, in assay [2], the pest or weed control at 15.625 g/ha was 0%, the pest or weed control at 62.5 g/ha came out at 0% and the pest or weed control at 250 g/ha worked out at 0%. In assay [3], the pest or weed control at 15.625 g/ha stood at 0%, the pest or weed control at 62.5 g/ha came out at 0% and the pest or weed control at 250 g/ha stood at 0%. Also, in assay [4], the pest or weed control at 15.625 g/ha came out at 0%, the pest or weed control at 62.5 g/ha was determined as 0% and the pest or weed control at 250 g/ha turned out to be 0%. Also, in assay [5], the pest or weed control at 15.625 g/ha came to 0%, the pest or weed control at 62.5 g/ha was 0% and the pest or weed control at 250 g/ha worked out at 0%.
For the compound `Cc1cc(NC(=O)[C@@H]2C(=O)N(C)C[C@H]2c2ccc(C(F)(F)F)cc2)n[nH]1` (racemic) [Compound 1532], in assay [1], the pest or weed control at 15.625 g/ha was 0%, the pest or weed control at 62.5 g/ha turned out to be 0% and the pest or weed control at 250 g/ha was determined as 0%. In addition, in the assay on corn (Zea mays), the plant injury at 15.625 g/ha worked out at 0%, the plant injury at 62.5 g/ha was determined as 0% and the plant injury at 250 g/ha is 0%. Further, in assay [2], the pest or weed control at 15.625 g/ha was determined as 0%, the pest or weed control at 62.5 g/ha is 0% and the pest or weed control at 250 g/ha was 0%. For the same compound, in assay [3], the pest or weed control at 15.625 g/ha was found to be 0%, the pest or weed control at 62.5 g/ha came out at 0% and the pest or weed control at 250 g/ha was 0%. Moreover, in assay [4], the pest or weed control at 15.625 g/ha was determined as 0%, the pest or weed control at 62.5 g/ha came out at 0% and the pest or weed control at 250 g/ha stood at 0%. In assay [5], the pest or weed control at 15.625 g/ha is 0%, the pest or weed control at 62.5 g/ha was 0% and the pest or weed control at 250 g/ha worked out at 0%.
With `CN1C[C@@H](c2ccc(C(F)(F)F)cc2)[C@H](C(=O)Nc2cc[nH]n2)C1=O` (racemic) [Compound 1533], in assay [1], the pest or weed control at 15.625 g/ha was determined as 0%, the pest or weed control at 62.5 g/ha was 0% and the pest or weed control at 250 g/ha was determined as 0%. Also, in the assay with corn (Zea mays), the plant injury at 15.625 g/ha worked out at 0%, the plant injury at 62.5 g/ha came out at 0% and the plant injury at 250 g/ha is 0%. Besides, in assay [2], the pest or weed control at 15.625 g/ha was found to be 0%, the pest or weed control at 62.5 g/ha came out at 0% and the pest or weed control at 250 g/ha was found to be 0%. In addition, in assay [3], the pest or weed control at 15.625 g/ha is 0%, the pest or weed control at 62.5 g/ha was found to be 0% and the pest or weed control at 250 g/ha came to 0%. Besides, in assay [4], the pest or weed control at 15.625 g/ha was determined as 0%, the pest or weed control at 62.5 g/ha came out at 0% and the pest or weed control at 250 g/ha stood at 0%. Besides, in assay [5], the pest or weed control at 15.625 g/ha worked out at 0%, the pest or weed control at 62.5 g/ha was 0% and the pest or weed control at 250 g/ha stood at 0%.
For `CN1C[C@@H](c2ccc(C(F)(F)F)cc2)[C@H](C(=O)Nc2nc[nH]n2)C1=O` (racemic) [Compound 1534], the pest or weed control at 15.625 g/ha in assay [1], in assay [2], in assay [3], in assay [4] and in assay [5] was 0% throughout. The pest or weed control at 62.5 g/ha in assay [1], in assay [2], in assay [3], in assay [4] and in assay [5] was 0% throughout. Further, the pest or weed control at 250 g/ha came out at 0% in assay [1]; 0% in assay [2]; 10% in assay [3]; 10% in assay [4]; 0% in assay [5]. In the assay with corn (Zea mays), the plant injury at 15.625 g/ha was 0%. Moreover, the plant injury at 62.5 g/ha in the assay on corn (Zea mays) is 0%. For the same compound, the plant injury at 250 g/ha with corn (Zea mays) was 0%.
As to `CN1C[C@@H](c2ccc(C(F)(F)F)cc2)[C@H](C(=O)Nc2cnccc2Cl)C1=O` (racemic) [Compound 1541], the pest or weed control at 15.625 g/ha in assay [1], in assay [2], in assay [3], in assay [4] and in assay [5] was 0% each time. The pest or weed control at 62.5 g/ha in assay [1], in assay [2], in assay [3], in assay [4] and in assay [5] was 0% throughout. Moreover, the pest or weed control at 250 g/ha worked out at 20% in assay [1]; 50% in assay [2]; 0% in assay [3]; 10% in assay [4]; 20% in assay [5]. Moreover, the plant injury at 15.625 g/ha in the assay with corn (Zea mays) worked out at 0%. For the same compound, the plant injury at 62.5 g/ha in the assay with corn (Zea mays) is 0%. The plant injury at 250 g/ha in the assay with corn (Zea mays) was found to be 10%.
